From patent US20260375146A1, “COMBINATION OF COMPOUNDS FOR DEVELOPING IN VITRO MODELS OF THE BLOOD-BRAIN BARRIER” (HUN-REN SZEGEDI BIOLÓGIAI KUTATÓKÖZPONT, priority 2023, published 2026)
Where two headings read alike, the source gives them in different places.

How the values were obtained:
[1] = system: Wnt/β-catenin signaling; conditions: in vitro; cited from earlier work
[2] = system: stem cell-derived ECs; conditions: cited from earlier work
[3] = system: human stem cell-derived ECs; experiment: Impedance-based measurement of barrier integrity, human ECs; assay type: cell-based
Description: (§1) Real-time, label-free measurement of barrier integrity was performed in 96-well plates with integrated gold electrodes (E-plate 96: Agilent, cat #300600910) using an xCELLigence RTCA SP device (Agilent). Plates were coated with 0.2% gelatin (Sigma-Aldrich, cat #G2500) and the cell-free background was measured in culture medium for each well. Then, ECs were seeded in the plates at a density of 6×10^3 cells/well and grown until fully confluent, while receiving 50% PC-conditioned medium to acquire brain-like properties. […] For combinatorial treatments, the following concentrations were used: cAMP 250 µM, Ro […], Wnt-3a 300 ng/mL, Wnt-7a 300 ng/mL, LiCl 3 mM, RepSox 10 μM and A83-01 3 μM. For all further experiments on human ECs, combination of cAMP+Ro+LiCl+A83-01 treatment consisted of 250 μM cAMP+17.5 μM Ro+3 mM LiCl+3 μM A83-01. The readout of impedance measurements is cell index, a dimensionless parameter which correlates with the strength of cell-cell contacts and cell adhesion. Cell index was defined as Zn-Z0, where Zn is the impedance at time point n and Zo is the impedance of the cell-free background in each well. Cell index values were normalized to the last time point before treatment.

[4] = system: Wnt/β-catenin signaling; experiment: Pharmacological inhibition of Wnt/β-catenin signaling, barrier integrity by impedance; assay type: cell-based, human; conditions: for interference with basal barrier integrity: no combination treatment, titrated inhibitor; for reduction of the effect of cAMP+Ro+LiCl+A83-01 on barrier integrity (impedance): role: inhibitor, ICG-001 5 μM or XAV 939 1 μM, co-treatment 48 h
Description: as §1
Wnt/β-catenin signaling was blocked at two different points using inhibitors ICG-001 (MedChemExpress, cat #HY-14428) and XAV 939 (MedChemExpress, cat #HY-15147). For the measurement of barrier integrity by impedance. ECs were cultured as described above. Confluent monolayers were treated with ICG-001 […] for 48 h at 37 °C, and impedance was measured at 10 kHz every 5 min using the xCELLigence RTCA SP device (Agilent) as described above. […] For the measurement of TEER and tracer permeability, EC-PC co-cultures were assembled and maintained as described above. On day 4, the luminal (blood) side of the model was incubated with the combination of cAMP+Ro+LiC+A83-01 or control medium supplemented with either 5 μM ICG-001 or 1 μM XAV 939 for 48 h at 37 °C. TEER and tracer permeability were then measured and calculated as described above.

[5] = system: Wnt/β-catenin signaling; conditions: role: inhibitor; cited from earlier work
[6] = system: central nervous system; conditions: route of penetration across the BBB; cited from earlier work
[7] = system: EC-PC co-culture BBB model; experiment: Penetration of small molecule drugs across the BBB co-culture model; conditions: 1 μM drug; cAMP+Ro+LiCl+A83-01 vs control
Description: Assembly, maintenance and treatment of co-cultures were performed as described above. […] In B-A direction, samples from both compartments were collected at 60 min. In A-B direction, inserts were transferred to a new well with fresh buffer at 30 min, then at the end of the assay samples were collected from the donor (0-60 min) and acceptor compartments (0-30 min, 30-60 min). […] Drug concentrations were determined by standard calibration curves.
where CA is the concentration measured in the acceptor compartment, VA is the volume of the acceptor compartment (1.5 mL) and CD is the treatment concentration in the donor compartment at a given timepoint. […] Papp was then calculated as: […]
where A is the surface area of the insert available for permeability (1.12 cm^2). Efflux ratio was calculated by dividing Papp values in B-A direction by Papp values in A-B direction.
where nA.30, nA.60 and nD.60 are the amounts of substance (pmol) in the accentor compartment at 30 and 60 min as well as the donor compartment at 60 min, respectively, and nT is the amount of substance (pmol) present at the treatment solution at 0 min. In vitro Kp,uu,brain was then calculated as: […]
where CT is the concentration of a drug in the treatment solution at 0 min, CD is the concentration in the donor compartment at 60 min and R is recovery. Calculation of Pearson r^2 and Spearman r coefficients using data referenced in the legend FIG. 5d was performed in GraphPad Prism software (version 5.0).

[8] = system: human endothelial cell and brain pericyte co-culture BBB model; experiment: Early experiment: cAMP alone or with PDE4 inhibitor, normalized cell index; assay type: cell-based; conditions: PDE4 inhibitor together with cAMP; in particular within first 24 hours; data not shown
[9] = system: EC monolayers; conditions: alone, especially with astrocyte-conditioned medium; cited from earlier work
[10] = system: human stem cell-derived brain-like ECs; experiment: Albumin internalization in ECs; assay type: cell-based; conditions: MβCD 1 mM, 1 h
Description: ECs were cultured in 50% PC-conditioned medium on 35 mm glass bottom Petri dishes (Greiner Bio-One, cat #627860) coated with collagen IV (Sigma-Aldrich, cat #C5533, 100 ng/mL) and fibronectin (Sigma-Aldrich, cat #F1141, 25 μg/mL) at a seeding density of 5×10^4 cells/cm^2. […] After that, culture medium was removed and cells were incubated with Texas Red-conjugated BSA (TR-albumin; Invitrogen, cat #A23017, 5 μg/mL) dissolved in control medium for 2 h at 37 °C. For the final 20 minutes of incubation, Hoechst 33342 (Thermo Fisher, cat #H1399,2 μg/mL) was added to cells to counterstain nuclei. Cultures were washed twice in Ringer-HEPES supplemented with 1% FBS and live-cell imaging was performed immediately in the same buffer using a Leica TCS SP5 AOBS confocal laser scanning microscope equipped with a HCX PL APO 63× oil (NA=1.4) objective with the same parameters as described above. After live-cell imaging, cells were fixed with 3% paraformaldehyde for 15 min at room temperature and immunostained for caveolin-1 exactly as described above. […] Finally, ECs were lysed with 1% Triton X 100 in Milli-Q water and the fluorescent signal of internalized TR-albumin was quantified with a Fluorolog 3 spectrofluorometer (Horiba Jobin Yvon) at 592 nm excitation and 612 nm emission wavelengths. Concentrations of internalized TR-albumin were calculated using a standard calibration curve. […]

For `O=C1Nc2cc(Br)ccc2C1=C1Nc2ccccc2C1=NO` [6-BIO, 6-bromoindirubin-3-oxim], the “induction of barrier properties” value [1] is given as “induce a subset of barrier properties”.

In the case of `Cc1cccc(-c2nn(C(=S)Nc3ccccc3)cc2-c2ccnc3ccccc23)n1` [A83-01, 3-(6-Methyl-2-pyridinyl)-N-phenyl-4-(4-quinolinyl)-1H-pyrazole-1-carbothioamide], the junctional tightness [2] is listed as “elevate junctional tightness” and the “enhancement of the effect of cAMP+Ro on barrier integrity (impedance)” value [3] is listed as “did not enhance”.

For `Cc1c[nH]c(-c2cnc(NCCNc3ccc(C#N)cn3)nc2-c2ccc(Cl)cc2Cl)n1` [CHIR99021], the “induction of barrier properties” value [1] is listed as “induce a subset of barrier properties”.

In the case of `O=C1[C@H](Cc2ccc(O)cc2)N2C(=O)CCN(C(=O)NCc3ccccc3)[C@H]2CN1Cc1cccc2ccccc12` [ICG-001], the “interference with basal barrier integrity” value [4] is listed as “do not interfere with basal barrier integrity”, the “reduction of the effect of cAMP+Ro+LiCl+A83-01 on barrier integrity (impedance)” value [4] is listed as “moderately” and the “point of inhibition of Wnt signaling” value [5] is listed as “specifically inhibits the β-catenin-CREB-binding protein (CBP) interaction in the nucleus”.

In the case of `COc1ccc2c(c1)c(CC(=O)O)c(C)n2C(=O)c1ccc(Cl)cc1` [Indomethacin], the BBB transport [6] is listed as “Passive lipophilic”.

For `Nc1nnc(-c2cccc(Cl)c2Cl)c(N)n1` [Lamotrigine], the BBB transport [6] is given as “Passive lipophilic”.

For `[Cl-].[Li+]` [LiCl, lithium chloride], the “enhancement of the effect of cAMP+Ro on barrier integrity (impedance)” value ([3]; added to cAMP+Ro) is listed as “did not enhance” and the “induction of barrier properties” value [1] is listed as “induce a subset of barrier properties”.

For `CN(C)C(=O)C(CCN1CCC(O)(c2ccc(Cl)cc2)CC1)(c1ccccc1)c1ccccc1` [Loperamide], the “efflux ratio, change on combination treatment” value (shortened to “efflux ratio, change”) [7] is given as “elevated”, the “permeability (Papp), blood-to-brain (A-B), change on combination treatment” value (“permeability … change on combination treatment” below) [7] is given as “lower permeability” and the BBB transport [6] is given as “Passive hydrophilic, efflux”.

In the case of `CC(C)NCC(O)COc1cccc2ccccc12` (stereo not shown) [Propranolol], the “permeability … change on combination treatment” value [7] is listed as “increased the permeability” and the BBB transport [6] is listed as “Passive lipophilic”.

In the case of `Cc1cccc(-c2[nH]ncc2-c2ccc3ncccc3n2)n1` [RepSox], the junctional tightness ([2]; stem cell-derived ECs, via claudin-5) is listed as “elevate junctional tightness”.

In the case of `CCCCOc1cc(CC2CNC(=O)N2)ccc1OC` (stereo not shown) [Ro 20-1724, 4-(3-Butoxy-4-methoxybenzyl)imidazolidin-2-one], the “barrier integrity as normalized cell index, further increase over cAMP alone” value [8] is given as “further increases barrier integrity” and the “resistance across EC monolayers” value [9] is given as “increase resistance across EC monolayers”.

In the case of `O=C(O)c1ccccc1O` [Salicylic acid], the “permeability … change on combination treatment” value [7] is listed as “lower permeability” and the BBB transport [6] is listed as “Efflux, influx”.

In the case of `Nc1c2c(nc3ccccc13)CCCC2` [Tacrine], the “permeability … change on combination treatment” value [7] is given as “increased the permeability” and the BBB transport [6] is given as “Influx”.

In the case of `CC[C@]1(O)C[C@@H]2CN(CCc3c([nH]c4ccccc34)[C@@](C(=O)OC)(c3cc4c(cc3OC)N(C)[C@H]3[C@@](O)(C(=O)OC)[C@H](OC(C)=O)[C@]5(CC)C=CCN6CC[C@]43[C@@H]65)C2)C1` [Vinblastine], the “efflux ratio, change” value [7] is listed as “trend”, the “permeability … change on combination treatment” value [7] is listed as “lower permeability” and the BBB transport [6] is listed as “Efflux”.

For `Oc1nc(-c2ccc(C(F)(F)F)cc2)nc2c1CSCC2` [XAV 939], the “interference with basal barrier integrity” value [4] is listed as “do not interfere with basal barrier integrity”, the “reduction of the effect of cAMP+Ro+LiCl+A83-01 on barrier integrity (impedance)” value [4] is listed as “more potently reduced the effect of the combination of cAMP+Ro+LiCl+A83-01, almost to the level of cAMP+Ro treatment” and the “point of inhibition of Wnt signaling” value [5] is listed as “blocks the pathway upstream of nuclear translocation”.

In the case of `C=C[C@@]1(C)CC(=O)[C@]2(O)[C@@]3(C)[C@@H](O)CCC(C)(C)[C@@H]3[C@H](O)[C@H](OC(C)=O)[C@@]2(C)O1` [forskolin], the “resistance across EC monolayers” value [9] is listed as “increase resistance across EC monolayers”.

In the case of Methotrexate, the “efflux ratio, change” value [7] is listed as “elevated” and the BBB transport [6] is listed as “Efflux”.

With “methyl-β-cyclodextrin [methyl-p-cyclodextrin]” the “inhibition of albumin internalization (lipid raft/caveolin-mediated endocytosis)” value [10] was “sensitive”.

B1: Wnt-3a: recombinant human Wnt-3a protein (protein, UniProt P56704 19-352, looked up)
Protein Wnt-3a: SYPIWWSLAVGPQYSSLGSQPILCASIPGLVPKQLRFCRNYVEIMPSVAEGIKIGIQECQHQFRGRRWNCTTVHDSLAIFGPVLDKATRESAFVHAIASAGVAFAVTRSCAEGTAAICGCSSRHQGSPGKGWKWGGCSEDIEFGGMVSREFADARENRPDARSAMNRHNNEAGRQAIASHMHLKCKCHGLSGSCEVKTCWWSQPDFRAIGDFLKDKYDSASEMVVEKHRESRGWVETLRPRYTYFKVPTERDLVYYEASPNFCEPNPETGSFGTRDRTCNVSSHGIDGCDLLCCGRGHNARAERRREKCRCVFHWCCYVSCQECTRVYDVHTCK
For B1, the “induction of barrier properties” value [1] is listed as “induce a subset of barrier properties”.
